Test results from PubChem BioAssay AID220 (DTP/NCI, 2004).
Where “and” joins values, the source holds several entries; their conditions need not be identical. Equal entries are not always repeated. Records with an inconclusive call do not appear.

Test system: CD8F1 mice, subcutaneous mammary adenocarcinoma, T/C%
Assay: NCI In Vivo Anticancer Drug Screen. Data for tumor model Mammary Adenocarcinoma CD8F1 (subcutaneous) in CD8F1
Conditions: higher = larger tumour
How it was run: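 Antitumor activity is assessed in transplantable-tumor mice by comparing the treated group with a vehicle-treated control group. Survival or tumor size serves as the measure, reported as T divided by C.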

[1] = endpoint: median tumor weight change, dose: 1.5 mg/kg/injection, schedule: Q01DX001 (ip), vehicle: saline
[2] = endpoint: median tumor weight change, dose: 3.0 mg/kg/injection, schedule: Q01DX001 (ip), vehicle: saline
[3] = endpoint: median tumor weight (est.), dose: 6.25 mg/kg/injection, schedule: Q07DX005 (ip), vehicle: Klucel (hydroxypropylcellulose) (HPC)
[4] = endpoint: median tumor weight (est.), dose: 12.5 mg/kg/injection, schedule: Q07DX005 (ip), vehicle: Klucel (hydroxypropylcellulose) (HPC)
[5] = endpoint: median tumor weight (est.), dose: 25.0 mg/kg/injection, schedule: Q07DX005 (ip), vehicle: Klucel (hydroxypropylcellulose) (HPC)
[6] = endpoint: median tumor weight (est.), dose: 50.0 mg/kg/injection, schedule: Q07DX005 (ip), vehicle: Klucel (hydroxypropylcellulose) (HPC)
[7] = endpoint: median tumor weight (est.), dose: 100.0 mg/kg/injection, schedule: Q07DX005 (ip), vehicle: Klucel (hydroxypropylcellulose) (HPC)
[8] = endpoint: median tumor weight (est.), dose: 3.12 mg/kg/injection, schedule: Q07DX005 (ip), vehicle: saline with Tween-80
[9] = endpoint: median tumor weight (est.), dose: 6.25 mg/kg/injection, schedule: Q07DX005 (ip), vehicle: saline with Tween-80
[10] = endpoint: median tumor weight (est.), dose: 12.5 mg/kg/injection, schedule: Q07DX005 (ip), vehicle: saline with Tween-80
[11] = endpoint: median tumor weight change, dose: 6.0 mg/kg/injection, schedule: Q01DX001 (ip), vehicle: saline
[12] = endpoint: median tumor weight change, dose: 12.0 mg/kg/injection, schedule: Q01DX001 (ip), vehicle: saline
[13] = endpoint: median tumor weight change, dose: 24.0 mg/kg/injection, schedule: Q01DX001 (ip), vehicle: saline
[14] = endpoint: median tumor weight (est.), dose: 200.0 mg/kg/injection, schedule: Q07DX005 (ip), vehicle: Klucel (hydroxypropylcellulose) (HPC)
[15] = endpoint: median tumor weight (est.), dose: 12.5 mg/kg/injection, schedule: Q07DX005 (ip), vehicle: saline
[16] = endpoint: median tumor weight (est.), dose: 25.0 mg/kg/injection, schedule: Q07DX005 (ip), vehicle: saline
[17] = endpoint: median tumor weight (est.), dose: 50.0 mg/kg/injection, schedule: Q07DX005 (ip), vehicle: saline
[18] = endpoint: median tumor weight (est.), dose: 100.0 mg/kg/injection, schedule: Q07DX005 (ip), vehicle: saline
[19] = endpoint: median tumor weight (est.), dose: 200.0 mg/kg/injection, schedule: Q07DX005 (ip), vehicle: saline
[20] = endpoint: median tumor weight (est.), dose: 400.0 mg/kg/injection, schedule: Q07DX005 (ip), vehicle: saline

C[PH+](C)C.C[PH+](C)C.[Au]
T/C [1]: 112 % of control | T/C [2]: 77 % of control | T/C (endpoint: median tumor weight change, dose: 3.12 mg/kg/injection, schedule: Q01DX001 (ip), vehicle: saline): 95 % of control | T/C (endpoint: median tumor weight change, dose: 12.5 mg/kg/injection, schedule: Q01DX001 (ip), vehicle: saline): 60 % of control and 80 % of control

CC(C)NC(=O)OCc1c(COC(=O)NC(C)C)c(-c2ccc(Cl)c(Cl)c2)n2c1CCC2
T/C (endpoint: median tumor weight (est.), dose: 12.5 mg/kg/injection, schedule: Q07DX005 (ip), vehicle: distilled water + Tween-80): 67 % of control | T/C (endpoint: median tumor weight (est.), dose: 25.0 mg/kg/injection, schedule: Q07DX005 (ip), vehicle: distilled water + Tween-80): 120 % of control | T/C (endpoint: median tumor weight (est.), dose: 50.0 mg/kg/injection, schedule: Q07DX005 (ip), vehicle: distilled water + Tween-80): 21 % of control | T/C (endpoint: median tumor weight (est.), dose: 100.0 mg/kg/injection, schedule: Q07DX005 (ip), vehicle: distilled water + Tween-80): 6 % of control

CCCCCCC1C=Cc2ccccc21 (centres undefined)
T/C [3]: 65 % of control | T/C [4]: 61 % of control | T/C [5]: 84 % of control | T/C [6]: 86 % of control | T/C [7]: 66 % of control

CCOC(=O)Nc1cc2c(c(N)n1)N=C(CN(C)c1ccccc1)CN2
T/C (endpoint: median tumor weight (est.), dose: 3.12 mg/kg/injection, schedule: Q07DX005 (ip), vehicle: Klucel (hydroxypropylcellulose) (HPC)): 268 % of control | T/C [3]: 70 % of control | T/C [5]: 69 % of control and 79 % of control

NC(N)=NC(N)=Nc1ccc(-c2ccc(N=C(N)N=C(N)N)cc2)cc1
T/C [8]: 108 % of control | T/C [9]: 118 % of control | T/C [10]: 156 % of control

CC(C)NCC(O)COc1ccc(O)c(O)c1 (centres undefined)
T/C [1]: 84 % of control | T/C [11]: 89 % of control and 105 % of control | T/C [12]: 72 % of control and 97 % of control | T/C [13]: 102 % of control | T/C (endpoint: median tumor weight change, dose: 125.0 mg/kg/injection, schedule: Q01DX001 (ip), vehicle: saline): 77 % of control and 96 % of control

C[CH2][Pb]([CH2]C)([CH2]C)[O]C(=O)COc1ccccc1
T/C (endpoint: mean tumor weight, dose: 0.75 mg/kg/injection, schedule: Q01DX009 (ip), vehicle: saline): 112 % of control | T/C (endpoint: mean tumor weight, dose: 0.75 mg/kg/injection, schedule: Q07DX009 (ip), vehicle: saline): 398 % of control | T/C (endpoint: mean tumor weight, dose: 1.5 mg/kg/injection, schedule: Q01DX009 (ip), vehicle: saline): 57 % of control | T/C (endpoint: mean tumor weight, dose: 1.5 mg/kg/injection, schedule: Q07DX009 (ip), vehicle: saline): 192 % of control | T/C (endpoint: mean tumor weight, dose: 3.0 mg/kg/injection, schedule: Q01DX009 (ip), vehicle: saline): 73 % of control | T/C (endpoint: mean tumor weight, dose: 3.0 mg/kg/injection, schedule: Q07DX009 (ip), vehicle: saline): 172 % of control | T/C (endpoint: mean tumor weight, dose: 6.0 mg/kg/injection, schedule: Q07DX009 (ip), vehicle: saline): 165 % of control

CCCCC(C)(C(=O)OCC)C(=O)OCC
T/C [4]: 94 % of control | T/C [14]: 110 % of control | T/C (endpoint: median tumor weight (est.), dose: 400.0 mg/kg/injection, schedule: Q07DX005 (ip), vehicle: Klucel (hydroxypropylcellulose) (HPC)): 212 % of control

O=C(O)CCCc1ccc(N(CCCl)CCCl)cc1
T/C (endpoint: median tumor weight (est.), dose: 2.0 mg/kg/injection, schedule: Q07DX005 (ip), vehicle: saline): 234 % of control and 83 % of control | T/C (endpoint: median tumor weight (est.), dose: 4.0 mg/kg/injection, schedule: Q07DX005 (ip), vehicle: saline with Tween-80): 77 % of control | T/C (endpoint: median tumor weight (est.), dose: 7.5 mg/kg/injection, schedule: Q07DX005 (ip), vehicle: Klucel (hydroxypropylcellulose) (HPC)): 88 % of control | T/C (endpoint: median tumor weight (est.), dose: 8.0 mg/kg/injection, schedule: Q07DX005 (ip), vehicle: saline with Tween-80): 46 % of control | T/C (endpoint: median tumor weight (est.), dose: 15.0 mg/kg/injection, schedule: Q07DX005 (ip), vehicle: Klucel (hydroxypropylcellulose) (HPC)): 26 % of control | T/C (endpoint: median tumor weight (est.), dose: 16.0 mg/kg/injection, schedule: Q07DX005 (ip), vehicle: saline with Tween-80): 43 % of control | T/C (endpoint: median tumor weight (est.), dose: 30.0 mg/kg/injection, schedule: Q07DX005 (ip), vehicle: Klucel (hydroxypropylcellulose) (HPC)): 22 % of control | T/C (endpoint: median tumor weight (est.), dose: 32.0 mg/kg/injection, schedule: Q07DX005 (ip), vehicle: saline with Tween-80): 16 % of control | T/C (endpoint: median tumor weight (est.), dose: 32.0 mg/kg/injection, schedule: Q07DX005 (ip), vehicle: saline): 3 % of control and 14 % of control | T/C (endpoint: median tumor weight change, dose: 16.0 mg/kg/injection, schedule: Q01DX001 (ip), vehicle: saline with Tween-80): 57 % of control | T/C (endpoint: median tumor weight change, dose: 32.0 mg/kg/injection, schedule: Q01DX001 (ip), vehicle: saline with Tween-80): 62 % of control | T/C (endpoint: median tumor weight change, dose: 64.0 mg/kg/injection, schedule: Q01DX001 (ip), vehicle: saline with Tween-80): 38 % of control

[N-]=[N+]=[N-]
T/C [2]: 72 % of control | T/C [11]: 104 % of control | T/C [12]: 122 % of control | T/C [13]: 66 % of control

COC1C(/C=C/C(C)=O)OC2OC(C)(C)OC21 (centres undefined)
T/C [4]: 165 % of control | T/C [15]: 76 % of control | T/C [5]: 99 % of control | T/C [16]: 83 % of control | T/C [6]: 91 % of control | T/C [17]: 38 % of control | T/C [7]: 96 % of control | T/C [18]: 101 % of control | T/C [14]: 71 % of control | T/C [19]: 101 % of control | T/C [20]: 84 % of control

NC(=S)Nc1cccc2ccccc12
T/C (endpoint: median tumor weight change, dose: 31.25 mg/kg/injection, schedule: Q01DX001 (ip), vehicle: saline with Tween-80): 58 % of control | T/C (endpoint: median tumor weight change, dose: 62.5 mg/kg/injection, schedule: Q01DX001 (ip), vehicle: saline with Tween-80): 80 % of control

OCC1(CO)COC2(CCCCC2)N1
T/C [15]: 78 % of control | T/C [16]: 64 % of control | T/C [17]: 112 % of control | T/C [18]: 105 % of control | T/C [19]: 81 % of control | T/C [20]: 93 % of control

CC1=CC(=Nc2ccc(N(CCCl)CCCl)cc2)C=C(C)C1=O
T/C [3]: 61 % of control and 69 % of control | T/C [6]: 32 % of control and 44 % of control | T/C [7]: 45 % of control

Nc1ccc(Cl)cc1N
T/C (endpoint: median tumor weight (est.), dose: 12.5 mg/kg/injection, schedule: Q07DX005 (ip), vehicle: saline + alcohol): 92 % of control | T/C (endpoint: median tumor weight (est.), dose: 25.0 mg/kg/injection, schedule: Q07DX005 (ip), vehicle: saline + alcohol): 100 % of control | T/C (endpoint: median tumor weight (est.), dose: 50.0 mg/kg/injection, schedule: Q07DX005 (ip), vehicle: saline + alcohol): 100 % of control | T/C (endpoint: median tumor weight (est.), dose: 100.0 mg/kg/injection, schedule: Q07DX005 (ip), vehicle: saline + alcohol): 88 % of control | T/C (endpoint: median tumor weight (est.), dose: 200.0 mg/kg/injection, schedule: Q07DX005 (ip), vehicle: saline + alcohol): 123 % of control

C=CC(=O)N1CN(C(=O)C=C)CN(C(=O)C=C)C1
T/C [8]: 89 % of control | T/C [9]: 111 % of control | T/C [10]: 31 % of control

NC(Cn1ccc(=O)c(O)c1)C(=O)O (centres undefined)
T/C (endpoint: median tumor weight change, dose: 100.0 mg/kg/injection, schedule: Q01DX001 (ip), vehicle: saline): 82 % of control | T/C (endpoint: median tumor weight change, dose: 200.0 mg/kg/injection, schedule: Q01DX001 (ip), vehicle: saline): 69 % of control | T/C (endpoint: median tumor weight change, dose: 400.0 mg/kg/injection, schedule: Q01DX001 (ip), vehicle: saline): 52 % of control | T/C (endpoint: median tumor weight change, dose: 1600.0 mg/kg/injection, schedule: Q01DX001 (ip), vehicle: saline): 72 % of control

CN(C1=NS(=O)(=O)N=C(N(C)c2ccccc2)O1)c1ccccc1
T/C [4]: 86 % of control | T/C [5]: 88 % of control | T/C [6]: 90 % of control | T/C [7]: 123 % of control and 115 % of control | T/C [14]: 86 % of control and 111 % of control | T/C (endpoint: median tumor weight (est.), dose: 800.0 mg/kg/injection, schedule: Q07DX005 (ip), vehicle: Klucel (hydroxypropylcellulose) (HPC)): 85 % of control | T/C (endpoint: median tumor weight change, dose: 50.0 mg/kg/injection, schedule: Q01DX001 (ip), vehicle: Klucel (hydroxypropylcellulose) (HPC)): 76 % of control | T/C (endpoint: median tumor weight change, dose: 100.0 mg/kg/injection, schedule: Q01DX001 (ip), vehicle: Klucel (hydroxypropylcellulose) (HPC)): 71 % of control and 75 % of control and 91 % of control | T/C (endpoint: median tumor weight change, dose: 800.0 mg/kg/injection, schedule: Q01DX001 (ip), vehicle: Klucel (hydroxypropylcellulose) (HPC)): 47 % of control and 64 % of control and 69 % of control | T/C (endpoint: median tumor weight change, dose: 1600.0 mg/kg/injection, schedule: Q01DX001 (ip), vehicle: Klucel (hydroxypropylcellulose) (HPC)): 70 % of control
